Earlier results, collected in patent US20040038429A1, “Method of searching for novel lead compound” (priority 2000, published 2004).

Biological target: Thrombin (Homo sapiens, UniProt P00734)
Conditions: not given

Known bioactivity | Structure (SMILES)
Thrombin inhibitor | CC(=O)O.N=C(N)c1ccc(CC(NC(=O)CNS(=O)(=O)c2ccc3ccccc3c2)C(=O)N2CCCCC2)cc1 (stereo not shown)
Thrombin inhibitor | N=C(N)c1ccc(CC(NC(=O)CNS(=O)(=O)c2ccc3ccccc3c2)C(=O)N2CCCCC2)cc1 (stereo not shown) [drawing 16]
Thrombin inhibitor | N=C(N)c1ccc(CC(NC(=O)CNS(=O)(=O)c2ccc3ccccc3c2)C(=O)N2CCCCC2)cc1 (stereo not shown) [drawing 31]
Thrombin inhibitor | N=C(N)c1ccc(CC(NC(=O)CNS(=O)(=O)c2ccc3ccccc3c2)C(=O)N2CCCCC2)cc1 (stereo not shown) [drawing 33]

Same assay, conditions: thrombin

Structure (SMILES) | Known bioactivity
COC(=O)[C@H](CCCCN)NS(=O)(=O)c1ccc(C)cc1.Cl | Thrombin substrate
Cc1ccc(S(=O)(=O)NC(Cc2ccc(C(=N)N)cc2)C(=O)N2CCCCC2)cc1 (racemic) [4-TAPAP, Nα-(4-toluene-sulfonyl)-DL-p-amidinophenylalanyl-piperidine, reference compound] | thrombin inhibitors
C[C@@H]1CCN(C(=O)[C@H](CCCNC(=N)N)NS(=O)(=O)c2cccc3c2NC[C@H](C)C3)[C@@H](C(=O)O)C1 [MQPA, (2R,4R)-4-methyl-1-[Nα-(3-methyl-1,2,3,4-tetrahydro-8-quinolinesulfonyl)-L-arginyl]-2-piperidinecarboxylic acid, reference compound] | thrombin inhibitors
CCC1CCCN(C(=O)[C@H](CCCNC(=N)N)NS(=O)(=O)c2cccc3c(N(C)C)cccc23)C1 (stereo partly shown) [drawing 32] | Thrombin inhibitor

Results, then the molecule that gave them:

Known bioactivity | Structure (SMILES)
Thrombin substrate | COC(=O)[C@H](CCCCN)NS(=O)(=O)c1ccc(C)cc1
Thrombin inhibitor | CCC1CCCN(C(=O)[C@H](CCCNC(=N)N)NS(=O)(=O)c2cccc3c(N(C)C)cccc23)C1 (stereo partly shown) [drawing 26]

Biological target: 5-HT4 (Homo sapiens, UniProt Q13639)
Conditions: not given

5-HT4, sequence (Q13639 whole entry, species assumed): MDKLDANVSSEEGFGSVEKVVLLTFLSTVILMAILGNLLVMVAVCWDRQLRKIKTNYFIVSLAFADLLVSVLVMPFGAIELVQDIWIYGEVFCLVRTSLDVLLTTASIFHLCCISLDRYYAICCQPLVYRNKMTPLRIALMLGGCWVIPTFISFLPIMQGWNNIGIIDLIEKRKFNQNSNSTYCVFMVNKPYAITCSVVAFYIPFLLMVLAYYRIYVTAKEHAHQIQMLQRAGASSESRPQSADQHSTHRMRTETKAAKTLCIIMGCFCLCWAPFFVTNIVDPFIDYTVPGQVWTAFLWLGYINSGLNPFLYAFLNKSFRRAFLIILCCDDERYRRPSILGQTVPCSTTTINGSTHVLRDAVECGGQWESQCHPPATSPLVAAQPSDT

Known bioactivity | Structure (SMILES)
5-HT4 Partial agonist | COc1cc(N)c(Cl)cc1C(=O)CCC1CCN(CCNS(C)(=O)=O)CC1

Biological target: T1, Trypsin (Bos taurus, UniProt P00760)
T1 construct: gene PRSS1
Conditions: not given

T1 sequence (P00760 24-246): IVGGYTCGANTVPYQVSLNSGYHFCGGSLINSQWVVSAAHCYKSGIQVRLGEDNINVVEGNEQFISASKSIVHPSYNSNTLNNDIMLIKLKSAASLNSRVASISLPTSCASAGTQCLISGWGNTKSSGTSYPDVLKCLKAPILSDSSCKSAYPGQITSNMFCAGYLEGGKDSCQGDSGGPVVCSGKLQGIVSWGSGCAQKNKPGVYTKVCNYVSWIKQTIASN

Structure (SMILES) | Known bioactivity
Cc1ccc(S(=O)(=O)N[C@@H](CCCCN)C(=O)CCl)cc1.Cl | Trypsin inhibitor
Cc1ccc(S(=O)(=O)N[C@@H](CCCCN)C(=O)CCl)cc1 | Trypsin inhibitor
